From patent publication US20240207283A1, “WATER SOLUBLE COMPLEX COMPOSITIONS AND METHODS THEREOF” (VETERINARY PHARMACY CORPORATION, priority 2021, published 2024)

What was measured:
[1] = hydrotrope niacinamide
[2] = generally known; cited from earlier work

SMILES: CN1C(C(=O)Nc2ccccn2)=C(O)c2ccccc2S1(=O)=O [piroxicam]
- pH above which the clear solution begins to form [1]: above 9.0

SMILES: Cc1cnc(NC(=O)C2=C(O)c3ccccc3S(=O)(=O)N2C)s1 [meloxicam]
- solubility in methanol [2]: slightly soluble in methanol
- solubility in water [2]: insoluble in water
